From patent US12559720B2, “Mobilization and collection of peripheral blood hematopoietic stem cells and lymphocytes from deceased donors” (The Regents of the University of California, priority 2018, dated 2026)

What was measured:
PB HSC's / CD34+ cells = details: cited from earlier work
[1] = test system: CD34+ cells mobilized from bone marrow into peripheral blood; assay: First working embodiment: single-dose plerixafor mobilization in a deceased donor, apheresis, then CD34+ isolation

- whole body CT scans, routine hematology and serum chemistry panels before and after the procedure ([1]; deceased donor, single dose plerixafor): remained stable
SMILES: c1cc(CN2CCCNCCNCCCNCC2)ccc1CN1CCCNCCNCCCNCC1 [plerixafor, 1-{[4-(1,4,8,11-tetrazacyclotetradec-1-ylmethyl)phenyl]methyl}-1,4,8,11 tetrazacyclotetradecane]
- peak onset of action (PB HSC's / CD34+ cells; after administration): 6 to 10 h
- fraction of healthy donors who fail to produce desired numbers of CD34+ cells/kg (PB HSC's / CD34+ cells; single agent, standard dose 0.24 mg/kg, subcutaneously or intravenously): ⅓
- tolerability / organ toxicity (PB HSC's / CD34+ cells; single subcutaneous dose): well tolerated with no major organ toxicity
- % CD34+ ([1]; Leukopak Product): 0.87%
- % viability ([1]; Leukopak Product): 99.5%
- TNC ([1]; Leukopak Product): 1.49E+10
- Total CD34+ (= % CD34+/100 x TNC) ([1]; Leukopak Product): 1.29E+08
- TNC/mL ([1]; Leukopak Product, single sc dose plerixafor, apheresis started 8 hours after dose, 24 liters processed): 3.23E+07
- % CD34+ ([1]; Positive (CD34) fraction): 95%
- % viability ([1]; Positive (CD34) fraction): 95%
- TNC ([1]; Positive (CD34) fraction): 1.22E+08
- TNC/mL ([1]; Positive (CD34) fraction): 2.60E+06
- Total CD34+ (= % CD34+/100 x TNC) ([1]; Positive (CD34) fraction): 1.16E+08
- tolerability of the procedure (vital signs, oxygenation, urine output) ([1]; deceased donor, single sc dose plerixafor (0.24 kg/mg), 8 hours apheresis): tolerated the procedure well
- viable CD34+ cells isolated ([1]; first working embodiment): more than 1.0×10^8 cells
- purity of isolated CD34+ cells ([1]; first working embodiment, after isolation): 90-95%
